{"source": "patent EP0479899B1", "about": "“VASODILATORY AND IMMUNE SUPPRESSANT PEPTIDES” (THE PRESIDENT AND FELLOWS OF HARVARD COLLEGE, priority 1989, dated 1991)", "test_system": "Human macrophages", "test": "H₂O₂ production by IFN-γ activated macrophages (scopoletin fluorometric assay)", "type": "cell-based", "conditions": "3 hrs preincubation, up to 1000 ng/ml (2.5 X 10⁻⁷M); IFN-γ 200 units/ml; 3 days", "note": "Where no end group is shown, it is not given here.", "data": [{"substance": "Calcitonin: neuropeptide derived from the same gene as CGRP, available commercially (CGNLSTCMLGTYTQDFNKFHTFPQTAIGVGAP; ends and bridges not checked; cysteine pairing not given here; UniProt P01258 85-116, looked up)", "values": [{"measurement": "inhibition of H₂O₂ production by macrophages", "result": "inhibit H₂O₂ production by macrophages to a degree similar to that seen with CGRP"}]}]}
